Assay results taken from patent US7652006B2, “Substituted 1(2H)-phthalazinones and pharmaceutical compositions thereof” (Euro-Celtique S.A., priority 1998, dated 2010).
Where a name gives a salt, the structure may show the parent alone. Read-outs that look alike come from different tables or passages of the source.

What was measured:
[1] = system: AMPA receptors; experiment: electrophysiological assay, AMPA receptors expressed in oocyte; type: cell-based, rat; conditions: inhibiting or modulating AMPA receptors expressed in oocyte, read-out: AMPA IC50
Description: The compounds of the present invention may be assessed by electrophysiological assays in Xenopus oocytes expressing rat whole brain poly(A)^+ RNA (see Keana et. al. J. Med. Chem. 38: 4367-4379 (1995)) or in cultured rat cortical neurons (see Woodward et. al. Mol. Pharmacol. 47: 568-581 (1995)) for AMPA receptor activity. Compounds which are useful for treating or preventing the adverse consequences of stroke, hypoglycemia, neurodegenerative disorders, anxiety, epilepsy or psychosis, or which induce analgesia, will inhibit the currents across the membranes of the oocyte expressing AMPA receptors. However, if the compound potentiates currents across the oocyte membrane, then the compound is expected to be useful in enhancing cognition or treating schizophrenia or neurodegenerative disease such as Parkinson's Disease.
The potency of antagonism or potentiation for these compounds were determined by electrophysiological assay. Potencies of selective compounds described above in inhibiting or modulating AMPA receptors expressed in oocyte and their anticonvulsant activity against maximal electroshock induced convulsion are shown in Table 1.

[2] = system: maximal electroshock induced convulsion; experiment: Maximal Electroshock-induced Seizure (MES) test; type: in vivo, mice; conditions: iv, anticonvulsant activity against maximal electroshock induced convulsion; for ED50: Mus musculus
Description: The compounds of the present invention may be tested for […] anticonvulsant activity after iv or ip injection using a number of anticonvulsant tests in mice (audiogenic seizure model in DBA-2 mice. pentylenetetrazol-induced seizures in mice, maximum electroshock seizure test (MES)). The anticonvulsant activity of the AMPA antagonists may be evaluated in the Maximal Electroshock-induced Seizure (MES) test. Seizures are induced by application of current (50 mA, 60 pulses/sec, […], 1 sec duration, d.c.) through saline-coated corneal electrodes using a Ugo Basile ECT device (Model 7801). […] A tonic seizure is defined as a hindlimb extension in excess of 90 degrees from the plane of the body. Results are treated in a quintal manner. The potency of antagonism or potentiation for these compounds were determined by electrophysiological assay. Potencies of selective compounds described above in inhibiting or modulating AMPA receptors expressed in oocyte and their anticonvulsant activity against maximal electroshock induced convulsion are shown in Table 1.

SMILES | melting point [°C] | IC50 [1] [µM] | ED50 [2] [mg/kg] | also measured
Cn1c(=O)nc(-c2ccccc2)c2cc3c(cc21)OCO3 | 253 to 255 |  |  | 
c1ccc(-c2nc(-c3ccc4c(c3)OCO4)c3cc4c(cc3n2)OCO4)cc1 | 225 to 230 |  |  | 
CN(C)CCn1c(=O)nc(-c2ccc3c(c2)OCO3)c2cc3c(cc21)OCO3 [1-(2-(dimethylamino)ethyl)-6,7-methylenedioxy-4-(3,4-methylenedioxyphenyl)quinazolin-2-(1H)-one hydrochloride] |  |  |  | IC50 ([1]; hydrochloride): 1.1 µM; MES ED50 ([2]; hydrochloride): 8.1 mg/kg
C#CCn1c(=O)nc(-c2ccc3c(c2)OCO3)c2cc3c(cc21)OCO3 [1-(2-Propynyl)-6,7-methylenedioxy-4-(3,4-methylenedioxyphenyl)quinazolin-2(1H)-one] | 235 to 240 | 7 |  | 
CC(C)n1c(=O)nc(-c2cc3c(cc2Cl)OCO3)c2cc3c(cc21)OCO3 [1-Isopropyl-6,7-methylenedioxy-4-(2-chloro-4,5-methylenedioxyphenyl)quinazolin-2(1H)-one] | 147 to 150 | 5.5 | 6.2 | 
CC(C)n1c(=O)nc(-c2ccc3ccccc3c2)c2cc3c(cc21)OCO3 [1-Isopropyl-6,7-methylenedioxy-4-(2-naphthyl)quinazolin-2(1H)-one] | 213 to 215 | 2 | 4.5 | 
CCOCCn1c(=O)nc(-c2ccc3c(c2)OCO3)c2cc3c(cc21)OCO3 [1-[(2-Ethoxy)ethyl]-6,7-methylenedioxy-4-(3,4-methylenedioxyphenyl)quinazoline-2-one] |  | 8 | 10 | 
[O-][n+]1c(Cn2ccnc2)nc2cc3c(cc2c1-c1ccc2c(c1)OCO2)OCO3 [2-(Imidazol-1-yl)methyl-6,7-methylenedioxy-4-(3,4-methylenedioxyphenyl)quinazoline-3-oxide] |  | 5 | 5 | 
[O-][n+]1c(CCl)nc2cc3c(cc2c1-c1ccc2c(c1)OCO2)OCO3 [2-Chloromethyl-6,7-methylenedioxy-4-(3,4-methylenedioxy-phenyl)quinazoline 3-oxide] |  | 8 | 3.1 | 
CN(C)CCn1nc(-c2ccc3c(c2)OCO3)c2cc3c(cc2c1=O)OCO3 [2-[2-(Dimethylamino)ethyl]-4-(3,4-methylenedioxyphenyl)-6,7-methylenedioxy-1(2H)-phthalazinone] |  | 5 | 3.5 | 
Cn1ccnc1SCc1nc(-c2ccc3c(c2)OCO3)c2cc3c(cc2n1)OCO3 [2-[(1-Methyl-2-imidazolyl)thio]methyl-6,7-methylenedioxy-4-(3,4-methylenedioxy-phenyl)quinazoline] | 155 to 160 | 7 |  | 
c1ncn(Cc2nc(-c3ccc4c(c3)OCO4)c3cc4c(cc3n2)OCO4)n1 [6,7-Methylenedioxy-2-(1,2,4-triazol-1-yl)methyl-4-(3,4-methylenedioxyphenyl)quinazoline] | 195 to 198 | 9 |  | 
[O-][n+]1cnc2cc3c(cc2c1-c1ccc2c(c1)OCO2)OCO3 [6,7-Methylenedioxy-4-(3,4-methylenedioxyphenyl)quinazoline 3-oxide] |  | 7 | 2.5 | 
CN(C)CCOc1nc(-c2ccc3c(c2)OCO3)c2cc3c(cc2n1)OCO3.Cl [6,7-methylenedioxy-4-(3,4-methylenedioxyphenyl)-2-(2-(dimethylamino)ethoxy)quinazoline hydrochloride] |  |  | 10 | IC50 ([1]; hydrochloride): 10 µM

Now from value to compound, other results behind:

melting point [°C] | IC50 [1] [µM] | SMILES | ED50 [2] [mg/kg] | also measured
220 to 225 | 0.2 | CN(C)CCn1c(=O)nc(-c2ccc3c(c2)OCCO3)c2cc3c(cc21)OCO3 [1-(2-(dimethylamino)ethyl)-6,7-methylenedioxy-4-(3,4-ethylenedioxyphenyl)-quinazolin-2(1H)-one] | 1 | 
175 to 182 | 1 | CN(C)CCn1c(=O)nc(-c2ccc3c(c2)OCO3)c2cc3c(cc21)OCO3 [1-(2-(dimethylamino)ethyl)-6,7-methylenedioxy-4-(3,4-methylenedioxyphenyl)-quinazolin-2(1H)-one] |  | MES ED50 [2]: 1.5 mg/kg
 | 1.1 | CCn1c(=O)nc(-c2ccc3c(c2)OCCO3)c2cc3c(cc21)OCO3 [1-Ethyl-6,7-methylenedioxy-4-(3,4-ethylenedioxyphenyl)quinazolin-2(1H)-one] | 3 | 
 | 5 | CCn1c(=O)nc(-c2ccc3c(c2)OCO3)c2cc3c(cc21)OCO3 [1-Ethyl-6,7-methylenedioxy-4-(3,4-methylenedioxyphenyl)quinazolin-2(1H)-one] | 3.4 | 
 | 2 | CC(C)n1c(=O)nc(-c2ccc3c(c2)OCO3)c2cc3oc(=O)n(C)c3cc21 [1-Isopropyl-4-(3,4-methylenedioxyphenyl)-8-methyl-7-oxo-oxazol[5,4-g]quinazolin-2(1H)-one] | 1.5 | 
110 to 145 | 5 | CCCn1c(=O)oc2cc3c(-c4ccc5c(c4)OCO5)nc(=O)n(C(C)C)c3cc21 [1-Isopropyl-4-(3,4-methylenedioxyphenyl)-8-propyl-7-oxo-oxazol[5,4-g]quinazolin-2(1H)-one] |  | 
243 to 245 | 2 | CC(C)n1c(=O)nc(-c2ccc3c(c2)OC(F)(F)O3)c2cc3c(cc21)OCO3 [1-Isopropyl-6,7-methylenedioxy-4-(3,4-difluoromethylenedioxyphenyl)quinazolin-2(1H)-one] |  | 
214 to 217 | 1.8 | CC(C)n1c(=O)nc(-c2ccc3c(c2)OCCO3)c2cc3c(cc21)OCO3 [1-Isopropyl-6,7-methylenedioxy-4-(3,4-ethylenedioxyphenyl)-quinazolin-2(1H)-one] |  | 
 | 2.8 | CC(C)n1c(=O)nc(-c2ccc3c(c2)OCO3)c2cc3c(cc21)OCO3 [1-Isopropyl-6,7-methylenedioxy-4-(3,4-methylenedioxyphenyl)quinazolin-2(1H)-one] | 3 | 
279 to 281 | 8 | CC(C)n1c(=O)nc(-c2cnc3ccccc3c2)c2cc3c(cc21)OCO3 [1-Isopropyl-6,7-methylenedioxy-4-(3-quinolyl)quinazolin-2(1H)-one] |  | 
241 to 243 | 13 | CC(C)n1c(=O)nc(-c2ccc3ocnc3c2)c2cc3c(cc21)OCO3 [1-Isopropyl-6,7-methylenedioxy-4-(5-benzoxazole)quinazolin-2(1H)-one] |  | 
73 to 75 | 5 | CC(C)n1c(=O)nc(-c2ccc3c(c2)CCC3)c2cc3c(cc21)OCO3 [1-Isopropyl-6,7-methylenedioxy-4-(5-indanyl)quinazolin-2(1H)-one] |  | 
 | 2 | CCN(CC)CCn1c(=O)nc(-c2ccc3c(c2)OCO3)c2cc3c(cc21)OCO3 [1-[2-(diethylamino)ethyl]4-(3,4-methylenedioxyphenyl)-6,7-methylenedioxyquinazolin-2(1H)-one] | 5.2 | 
162 to 167 | 12 | NCCOc1nc(-c2ccc3c(c2)OCO3)c2cc3c(cc2n1)OCO3 [2-(2-Aminoethoxy)-6,7-methylenedioxy-4-(3,4-methylenedioxyphenyl)quinazoline] |  | 
160 to 163 | 4 | c1cn(CCc2nc(-c3ccc4c(c3)OCO4)c3cc4c(cc3n2)OCO4)cn1 [2-(Imidazol-1-yl)ethyl-6,7-methylenedioxy-4-(3,4-methylenedioxyphenyl)quinazoline] | 3.1 | 
 | 10 | O=c1c2cc3c(cc2c(-c2ccc4c(c2)OCO4)nn1CCN1CCCC1)OCO3 [2-[2-(1-Pyrrolidinyl)ethyl]-4-(3,4-methylenedioxyphenyl)-6,7-methylenedioxy-1(2H)-phthalazinone] | 3.8 | 
 | 10 | CC(C)n1c(=O)nc(-c2ccc3c(c2)CCO3)c2cc3c(cc21)OCO3 [4-(2,3-Dihydrobenzofuran-5-yl)-1-isopropyl-6,7-methylenedioxyquinazolin-2(1H)-one] | 3.3 | 
 | 2.5 | CN(C)CCOc1nc(-c2ccc3c(c2)OCO3)c2cc3c(cc2n1)OCO3 [6,7-Methylenedioxy-4-(3,4-methylenedioxyphenyl)-2-(2-(dimethylamino)ethoxy)-quinazoline] | 4 | 
180 to 185 | 11 | c1nc(-c2ccc3c(c2)OCO3)c2cc3c(cc2n1)OCO3 [6,7-Methylenedioxy-4-(3,4-methylenedioxyphenyl)quinazoline] |  | 
